Activity calls are given as the source filed them. How the calls were made is not given here.
Assay: inhibitors of TNFa-induced E-selectin expression, confirmation, imaging, retest plus dose response, cell count (AID 1288);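 further: 0% = stimulated vehicle wells and 100% = unstimulated vehicle wells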
Settings: human endothelial cells, TNFa-induced E-selectin, imaging; at 2 µM; stronger effect = higher value

Question: With CCOc1cc(-c2nn3cnnc3s2)cc(OCC)c1OCC as the compound, how does the inhibition read?
Answer: 4.31% (inactive)

Question: With COc1ccc(Br)cc1CN(C)CC(=O)Nc1c(Cl)cccc1Cl as the compound, how does the inhibition read?
Answer: 0.05% (inactive)

Question: Which inhibition does the source give for COc1ccc(CCNC(=O)CSc2nc(-c3ccco3)cc(C(F)(F)F)n2)cc1OC here?
Answer: 18.9% (inactive)

Question: For COc1c(Cl)cc(Cl)cc1C(=O)Nc1ccc(NC(C)=O)cc1, which inhibition is on record?
Answer: 5.32% (inactive)

Question: With COc1ccc(C2C(C(=O)Nc3cccnc3)=C(C)Nc3nc(-c4cccs4)nn32)cc1 (stereo unspecified) as the compound, how does the inhibition read?
Answer: 7.57% (inactive)

Question: For CCCn1c(CN2CCN(c3cccc(Cl)c3)CC2)nc2c1c(=O)n(C)c(=O)n2C, which inhibition is on record?
Answer: 7.73% (inactive)

Question: Which inhibition does the source give for N/C(Cc1ccc([N+](=O)[O-])cc1)=N\OC(=O)COc1ccc2ccccc2c1 here?
Answer: 12.6% (inactive)

Question: With CCN(CC)Cc1cc(C(C)=O)ccc1O as the compound, how does the inhibition read?
Answer: 3.73% (inactive)

Question: For CCOC(=O)N1CCN(C(=O)c2ccc(Oc3ccc([N+](=O)[O-])cc3)cc2)CC1, which inhibition is on record?
Answer: 18.9% (inactive)

Question: Which inhibition does the source give for COc1ccc(CCn2c(=S)[nH]c3cc(C(=O)NCc4ccco4)ccc3c2=O)cc1OC here?
Answer: 11% (inactive)

Question: Which inhibition does the source give for Cc1noc(C)c1S(=O)(=O)Nc1ccc(C(=O)NC2CCCCC2C)cc1 (stereo unspecified) here?
Answer: 22.8% (inactive)

Question: Which inhibition does the source give for COCCOC(=O)c1c(NC(=O)CN2CCOCC2)sc(C(N)=O)c1C here?
Answer: 16.3% (inactive)

Question: With Cn1c(O)c(C(=N)COc2cccc(Cl)c2)c(=O)n(C)c1=O as the compound, how does the inhibition read?
Answer: 18.8% (inactive)

Question: Which inhibition does the source give for Cc1ccn2cc(CCNS(=O)(=O)c3ccc(F)c(C(F)(F)F)c3)nc2c1 here?
Answer: 0.82% (inactive)

Question: Which inhibition does the source give for CCCCCC1NC(=O)NC1CCCCCC(=O)O (stereo unspecified) here?
Answer: 0.1% (inactive)

Question: With Cc1cc([N+](=O)[O-])nn1CC(=O)Nc1sc2c(c1C(N)=O)CCCC2 as the compound, how does the inhibition read?
Answer: 18.3% (inactive)

Question: For CC1=Nc2ccccc2/C1=C/c1c(N)n2c(S(=O)(=O)CC(C)C)nsc2nc1=O, which inhibition is on record?
Answer: 2.29% (inactive)

Question: With CCOC(=O)N1CCN(C(=O)C2CCN(S(=O)(=O)c3cc(OC)ccc3OC)CC2)CC1 as the compound, how does the inhibition read?
Answer: 1.55% (inactive)

Question: For CC(C)C(=O)Nc1cc(=O)[nH]c2ncnn12, which inhibition is on record?
Answer: 10.9% (inactive)

Question: For CCN1c2ccccc2-c2nc3ccccc3n2C1c1cccnc1 (stereo unspecified), which inhibition is on record?
Answer: 1.05% (inactive)

Question: For CC(C)CCNC(=O)c1nnc(Cc2ccc(Cl)cc2)o1, which inhibition is on record?
Answer: 4.7% (inactive)

Question: For O=C(/C=C/Nc1cccc(C(F)(F)F)c1)c1ccc(Oc2ncccn2)cc1, which inhibition is on record?
Answer: 18% (inactive)

Question: Which inhibition does the source give for CCOC(=O)c1ccc(-n2ccnc2)c(NC(=O)c2ccc(Cl)cc2)c1 here?
Answer: 11.1% (inactive)

Question: Which inhibition does the source give for Cc1ccc(C)c(NC(=O)CSc2nnc([C@@H](N)Cc3ccccc3)o2)c1 here?
Answer: 13.6% (inactive)

Question: With COc1cccc(C(C(=O)NC(C)(C)C)N(C(=O)CCC(=O)Nc2cc(C)on2)C2CC2)c1OC (stereo unspecified) as the compound, how does the inhibition read?
Answer: 2.4% (inactive)

Question: Which inhibition does the source give for COCCCNC(=S)N1CCN(c2ccc([N+](=O)[O-])cc2)CC1 here?
Answer: 20% (inactive)

Question: Which inhibition does the source give for CCCOC(=O)c1ccc(Cl)c(NC(=O)c2ccc(-c3ccccc3)cc2)c1 here?
Answer: 1.66% (inactive)

Question: For Cc1ccc2nc(-c3cccc(NC(=O)c4ccc5c(c4)OCCO5)c3)oc2c1, which inhibition is on record?
Answer: 4.99% (inactive)

Question: Which inhibition does the source give for CC(C)n1c(SCC(=O)Nc2nc3c(s2)CCCC3)nc2c1c(=O)n(C)c(=O)n2C here?
Answer: 3.36% (inactive)

Question: For CCN(CC)S(=O)(=O)c1ccc(-c2nnc(SCC(=O)Nc3ccc(OC)cc3)o2)cc1, which inhibition is on record?
Answer: 23.9% (inactive)

Question: Which inhibition does the source give for CCC(=O)c1ccc(N2CCOCC2)c(F)c1 here?
Answer: 10.3% (inactive)

Question: For CC(Sc1nnc2c(n1)C1CCC2(C)C1(C)C)C(=O)Nc1ccccc1 (stereo unspecified), which inhibition is on record?
Answer: 9.66% (inactive)

Question: With O=C(C1CCCO1)N1CCN(c2c3c(nc4cc(-c5ccc(F)cc5)nn24)CCC3)CC1 (stereo unspecified) as the compound, how does the inhibition read?
Answer: 5.9% (inactive)

Question: Which inhibition does the source give for CC(C)(C)c1ccc(OCCCNCc2ccccc2)cc1 here?
Answer: -6.22% (inactive)

Question: Which inhibition does the source give for Cc1cccc(NC(=O)Nc2ccc(C#N)cc2)n1 here?
Answer: 4.19% (inactive)

Question: With CC(Oc1ccc(Cl)cc1Cl)C(=O)N(Cc1ccco1)C1CCS(=O)(=O)C1 (stereo unspecified) as the compound, how does the inhibition read?
Answer: 33.5% (inactive)

Question: With COc1ccc(C2CC(O)(C(C)(C)O)NO2)cc1 (stereo unspecified) as the compound, how does the inhibition read?
Answer: -4.94% (inactive)

Question: For Cc1ccc(/C=C2\SC(N)=NC2=O)s1, which inhibition is on record?
Answer: 1.87% (inactive)

Question: For COc1ccc(C(=O)/C=C/Nc2ccc([N+](=O)[O-])cc2C)c(OC)c1, which inhibition is on record?
Answer: 26.8% (inactive)

Question: With CCOC(=O)C1CCCN(Cc2ccccc2F)C1 (stereo unspecified) as the compound, how does the inhibition read?
Answer: 30.6% (inactive)

Question: With Cc1cc(C(=O)Nc2nc3c(s2)CCCC3)no1 as the compound, how does the inhibition read?
Answer: 6.49% (inactive)

Question: Which inhibition does the source give for CCOC(=O)CSc1nc2cc(OC)ccc2cc1C#N here?
Answer: 11.6% (inactive)

Question: With O=C(Cc1ccc(-c2ccccc2)cc1)NCCN1CCOCC1 as the compound, how does the inhibition read?
Answer: 2.16% (inactive)

Question: Which inhibition does the source give for CCCCNc1nc(CC)c2c(c1C#N)CCCC2 here?
Answer: 4.98% (inactive)

Question: For CCOC(=O)c1ccc(Nc2cc(C)nc(N3CCOCC3)n2)cc1, which inhibition is on record?
Answer: 5.21% (inactive)

Question: For O=C(/C=C/c1ccc2c(c1)OCO2)Nc1nc2ccccc2s1, which inhibition is on record?
Answer: 16.2% (inactive)

Question: With O=C(c1ccc(Cl)cc1)N1CCCC(c2ccccc2)=N1 as the compound, how does the inhibition read?
Answer: 10% (inactive)

Question: Which inhibition does the source give for Cc1ccc(C2(O)CN(c3ccccc3C)C3=[N+]2CCS3)cc1 (stereo unspecified) here?
Answer: 2.57% (inactive)

Question: With O=C(CSc1nnc(CNc2ccc(F)cc2)o1)N1CCCc2ccccc21 as the compound, how does the inhibition read?
Answer: 2.29% (inactive)

Question: For Cc1nn(-c2ccccc2)c(Cl)c1CN(C(=O)CCl)c1cccc2ccccc12, which inhibition is on record?
Answer: 14.8% (inactive)

Question: Which inhibition does the source give for COc1ccccc1Cc1nc(-c2ccncc2)no1 here?
Answer: 13.1% (inactive)

Question: Which inhibition does the source give for COc1cc(C2C(C#N)=C(N)Oc3c2oc(CO)cc3=O)cc(OC)c1OC (stereo unspecified) here?
Answer: 10.9% (inactive)

Question: With CCCCN1C(=O)C2C3C=CC(C2C1=O)C1C2C(=O)N(CCCC)C(=O)C2C31 (stereo unspecified) as the compound, how does the inhibition read?
Answer: 28.4% (inactive)

Question: Which inhibition does the source give for CCN1CCN(Cc2ccc(C)cc2)CC1 here?
Answer: 6.18% (inactive)

Question: Which inhibition does the source give for Cc1nc2ccc(NC(=O)C3CCN(S(=O)(=O)c4cccs4)CC3)cc2s1 here?
Answer: 18.1% (inactive)

Question: Which inhibition does the source give for C/C(=N\Nc1cccc2cccnc12)c1ccccc1O here?
Answer: -0.47% (inactive)

Question: For CCOc1ccc(NC(=O)C2CCC(N3C(=O)C4CC=CCC4C3=O)CC2)cc1 (stereo unspecified), which inhibition is on record?
Answer: 2.62% (inactive)

Question: With CC(C)CC1NC(=O)N(CC(=O)N2CCN(S(=O)(=O)c3ccc(Cl)cc3)CC2)C1=O (stereo unspecified) as the compound, how does the inhibition read?
Answer: -2.35% (inactive)

Question: For C=CCN(CC=C)C(=O)Nc1cc(Cl)ccc1OC, which inhibition is on record?
Answer: 15.5% (inactive)

Question: With COc1ccc2cc(S(=O)(=O)N3CCN(C)CC3)ccc2c1 as the compound, how does the inhibition read?
Answer: 16.8% (inactive)

Question: For C#CCN1C(=O)C(O)(CC(=O)c2cccc(OC)c2)c2ccccc21 (stereo unspecified), which inhibition is on record?
Answer: 16% (inactive)

Question: With O=c1ncn(-c2ccccc2F)c2ncccc12 as the compound, how does the inhibition read?
Answer: 1.5% (inactive)

Question: For CCCc1[nH]nc2c1C(c1ccc(O)c(OC)c1)C(C#N)=C(N)O2 (stereo unspecified), which inhibition is on record?
Answer: 16.6% (inactive)

Question: For CCC(C)(C)n1nnnc1C(c1ccc(OC)c(OC)c1)N1CCN(c2ccccc2)CC1 (stereo unspecified), which inhibition is on record?
Answer: 2.72% (inactive)

Question: Which inhibition does the source give for CS(=O)(=O)C1=NSC2=NC(=O)/C(=C\c3cccn3-c3ccc(Cl)cc3)C(=N)N21 here?
Answer: 17.3% (inactive)

Question: Which inhibition does the source give for CN1CCC(N(C)C(=S)NC(=O)C23CC4CC(CC(C4)C2)C3)CC1 here?
Answer: 28.5% (inactive)

Question: Which inhibition does the source give for OC(c1ccc2c(c1)OCO2)c1nccc2ccccc12 (stereo unspecified) here?
Answer: 4.74% (inactive)

Question: Which inhibition does the source give for O=Cc1ccc(OCc2ccccn2)cc1 here?
Answer: 15.8% (inactive)

Question: Which inhibition does the source give for O=C(O)CCC(=O)Nc1ccc(Br)c(Cl)c1 here?
Answer: -3.06% (inactive)

Question: Which inhibition does the source give for CN1CCCN(S(=O)(=O)c2ccc(Cl)c(Cl)c2)CC1 here?
Answer: 0.45% (inactive)

Question: For COc1cc(C2C(C#N)=C(N)Oc3cc(C)n(CCc4ccccc4)c(=O)c32)cc2c1OCO2 (stereo unspecified), which inhibition is on record?
Answer: 4.3% (inactive)
